From patent publication US20230364057A1, “BACTERIAL DNA GYRASE INHIBITORS AND METHODS OF USE THEREOF” (THE FLORIDA INTERNATIONAL UNIVERSITY BOARD OF TRUSTEES, priority 2022, published 2023)

Legend:
E. coli DNA gyrase [1] = biological target: T1, E. coli DNA gyrase (Escherichia coli (strain K12), UniProt P0AES4+P0AES6); assay: biochemical; assay type: biochemical
E. coli DNA gyrase [2] = biological target: T1, E. coli DNA gyrase; assay: Agarose gel-based DNA gyrase inhibition assay; assay type: biochemical
Procedure: 100 ng of DNA gyrase was used to supercoil the rx pAB1 in the presence of different concentrations of a gyrase inhibitor. […] Samples were analyzed by electrophoresis in 1% w/v agarose gels followed by ethidium bromide staining and photographed under UV light.

[3] = IC50 (50-200 µM), bin of Table 2
[4] = IC50 ([…]-50 µM), bin of Table 2

Structure (SMILES)	inhibition of E. coli DNA gyrase activities (E. coli DNA gyrase [2]; 50 µM of compounds)	inhibition of E. coli DNA gyrase activities (E. coli DNA gyrase [2]; 200 µM of compounds)	also measured
N#Cc1sc2nc(-c3ccccc3)cc(-c3ccco3)c2c1N [Compound 167]	potently inhibited	–	IC50 (E. coli DNA gyrase [1]; [3]): 50 to 200 µM
Cc1cc(O)c2c(c1)C(=O)c1cc(O)cc(O)c1C2=O [Compound 242, Emodin]	–	completely inhibited	inhibition of E. coli DNA gyrase activities (E. coli DNA gyrase [1]): potently inhibited; IC50 (E. coli DNA gyrase [1]; [3]): 50 to 200 µM
CCOC(=O)[C@@H]1Nc2ccc(C(=O)O)cc2[C@@H]2C=CC[C@H]12 [Compound 141]	potently inhibited	–	inhibition of E. coli DNA gyrase activities (E. coli DNA gyrase [1]): inhibit E. coli DNA gyrase strongly
Cc1ccc(NC2=NC(=O)/C(=C/C=C/c3ccco3)S2)cc1 [Compound 24]	completely inhibited	completely inhibited	IC50 (E. coli DNA gyrase [1]; [4]): 25 to 50 µM
O=C1/C(=C\c2ccc(O)cc2)SC(=S)N1/N=C/c1ccc(O)cc1 [Compound 35]	completely inhibited	completely inhibited	IC50 (E. coli DNA gyrase [1]; [4]): 25 to 50 µM
O=C(NCc1cccnc1)c1ccc(-c2cccc(Cl)c2Cl)o1 [Compound 56]	–	almost completely inhibited	IC50 (E. coli DNA gyrase [1]; [3]): 50 to 200 µM
Cc1cccc2c1N=C(O)C2/N=N/c1ccc(S(N)(=O)=O)cc1 (stereo not shown) [Compound 116]	completely inhibited	–	–
O=C(OC[C@H]1O[C@@H](OC(=O)c2cc(O)c(O)c(OC(=O)c3cc(O)c(O)c(O)c3)c2)[C@H](OC(=O)c2cc(O)c(O)c(OC(=O)c3cc(O)c(O)c(O)c3)c2)[C@@H](OC(=O)c2cc(O)c(O)c(OC(=O)c3cc(O)c(O)c(O)c3)c2)[C@@H]1OC(=O)c1cc(O)c(O)c(OC(=O)c2cc(O)c(O)c(O)c2)c1)c1cc(O)c(O)c(OC(=O)c2cc(O)c(O)c(O)c2)c1 [Tannic acid, tannic acid]	–	–	IC50 (E. coli DNA gyrase [2]; gel-based, read-out: IC50 against E. coli DNA gyrase): 1 µM
O=C(NN1C(=O)/C(=C\C=C\c2ccco2)SC1=S)c1ccccc1O [Compound 180]	completely inhibited	–	IC50 (E. coli DNA gyrase [1]; IC50 (15-[…] µM), bin of Table 2): 15 to 25 µM
O=C(O[C@@H]1Cc2c(O)cc(O)cc2O[C@@H]1c1cc(O)c(O)c(O)c1)c1cc(O)c(O)c(O)c1 [EGCG, epigallocatechin gallate, reference compound]	–	–	inhibition of E. coli DNA gyrase activities (E. coli DNA gyrase [1]): strongly inhibit
O=C1NC(=S)S/C1=C/c1ccc(OC(=O)c2ccco2)cc1 [Compound 51]	–	almost completely inhibited	IC50 (E. coli DNA gyrase [1]; [3]): 50 to 200 µM
CN1C[C@H](CNC(=O)OCc2ccccc2)C[C@@H]2c3cccc4c3c(cn4C)C[C@H]21 [Metergoline, metergoline, reference compound]	–	–	inhibition of E. coli DNA gyrase activities (E. coli DNA gyrase [1]): inhibits gyrase activities at 100 and 200 µM
O=C(O)CCN1C(=O)/C(=C/c2ccc(-c3nc4ccccc4s3)o2)SC1=S [Compound 27]	completely inhibited	completely inhibited	–
Brc1ccc2c(c1)-c1ccccc1C1=NCCN12 [Compound 217]	–	completely inhibited	–
CN(C)c1ccc2cc3ccc(N(C)C)cc3nc2c1 [Compound 249]	–	completely inhibited	–
O=C1/C(=C\c2ccc(O)c([N+](=O)[O-])c2)SC(=S)N1Cc1ccccc1 [Compound 192]	completely inhibited	–	–
Nc1c2ccccc2nc2ccccc12 [Compound 247]	–	completely inhibited	–
N#C/C(=C\c1coc2ccc(O)cc2c1=O)C(=O)/N=c1\[nH]c2ccccc2s1 [Compound 165]	completely inhibited	–	–
CCOC(=O)c1cc2c(=Cc3ccc(N(C)C)cc3)c3ccccc3n2[n+]1C.O=S(=O)([O-])C(F)(F)F [Compound 239]	–	completely inhibited	–
CC(C)(CS(=O)(=O)[O-])NC(=O)CC[N+](C)(C)CCO [Compound 42]	completely inhibited	completely inhibited	–

Structure (SMILES)	inhibition of E. coli DNA gyrase activities (E. coli DNA gyrase [2]; 50 µM of compounds)	inhibition of E. coli DNA gyrase activities (E. coli DNA gyrase [2]; 200 µM of compounds)	also measured
COc1ccc2c(c1)/c(=C\c1ccc(N(C)C)cc1)c1cc(-c3ccccc3)[n+](C)n12.O=S(=O)([O-])C(F)(F)F [Compound 237]	–	completely inhibited	–
O=C(O)CCCN1C(=O)C(=Cc2ccc(-c3nc4ccccc4s3)o2)SC1=S (single isomer, unassigned) [Compound 41]	–	–	IC50 (E. coli DNA gyrase [1]; IC50 (≤15 µM) IC50, Table 2): 1.48 µM
Cc1cc(C)c2c(c1)C(/N=N/c1cc([N+](=O)[O-])ccc1C)C(O)=N2 (stereo not shown) [Compound 114]	completely inhibited	–	–
CC1=NN(c2nc(N)nc(/C(C#N)=C\c3ccc([N+](=O)[O-])o3)n2)C(C)(C)C1 [Compound 238]	–	completely inhibited	–
COc1cccc2nc3c(C(=O)NCCN(C)C)cccc3cc12.Cl [Compound 240]	–	completely inhibited	–
O=C(/C=C/c1ccc(O)c(O)c1)O[C@@H]1CC(O)(C(=O)O)C[C@@H](OC(=O)/C=C/c2ccc(O)c(O)c2)C1O (stereo partly shown) [3,5-dicaffeoylquinic acid, reference compound]	–	–	inhibition of E. coli DNA gyrase activities (E. coli DNA gyrase [1]): strongly inhibit
Cc1c2cc(O)c(=O)cc-2oc2cc(O)c(O)cc12 [methyl fluorone black]	–	–	IC50 (E. coli DNA gyrase [1]; read-out: IC50 against E. coli DNA gyrase): < 10 µM
CN1C(=O)/C(=C\c2ccc(-c3ccccc3)o2)SC1=S [Compound 57]	–	almost completely inhibited	–
Cc1cc(C)c2c(c1)C(=NNc1ccc(C)c(Cl)c1)C(O)=N2 [Compound 132]	completely inhibited	–	–
CN1/C(=C/c2cc[n+](C)c3ccccc23)Sc2ccccc21.Cc1ccc(S(=O)(=O)[O-])cc1 [Compound 248]	–	completely inhibited	–
O=c1ccc2cc3ccoc3cc2o1 [psoralen, reference compound]	–	–	inhibition of E. coli DNA gyrase activities (E. coli DNA gyrase [1]): is not a gyrase inhibitor
CCOc1ccc2nc3cc(N)ccc3c(N)c2c1 [Compound 257]	–	completely inhibited	–
O=C1NC(=S)S/C1=C/c1cc(Cl)cc(Cl)c1O [Compound 207]	inhibited	completely inhibited	–
O=C(O)c1cc(O)c2c(c1)C(=O)c1cccc(O)c1C2=O [rhein]	–	–	inhibition of E. coli DNA gyrase activities (E. coli DNA gyrase [1]): potently inhibited
CN(C)CCNC(=O)c1cccc2nc3cccc(F)c3nc12.Cl [Compound 241]	–	completely inhibited	–
O=C(O)C(c1ccccc1)N1C(=O)/C(=C\c2ccc(-c3cccc(Cl)c3)o2)SC1=S (stereo not shown) [Compound 176]	completely inhibited	–	–
CSC1SC2C(=O)N(C)C(C(C)C)C(=O)OCC(NC(=O)c3cnc4ccccc4n3)C(=O)NC(C)C(=O)N(C)C1C(=O)N(C)C(C(C)C)C(=O)OCC(NC(=O)c1cnc3ccccc3n1)C(=O)NC(C)C(=O)N2C (stereo not shown) [Compound 258]	–	completely inhibited	–
O=c1oc2c(O)c(O)cc3c(=O)oc4c(O)c(O)cc1c4c23 [ellagic acid, reference compound]	–	–	inhibition of E. coli DNA gyrase activities (E. coli DNA gyrase [1]): strongly inhibit
CN(C)c1ccc(/C=c2\c3ccccc3n3c2cc(-c2ccccc2)[n+]3C)cc1 [Compound 236]	completely inhibited	completely inhibited	–
Nc1ccc2cc3ccc(N)cc3nc2c1 [Compound 246]	–	completely inhibited	–
